Data: ChEMBL document CHEMBL1154563, “Flavonol-cinnamate cycloadducts and diamide derivatives from Aglaia laxiflora” (J Nat Prod, 2000)
Converted amounts (≈) assume the structure as drawn. The source made the active and inactive calls. No cut-off for these calls is given here.

How the values were obtained:
[1] = tested on: Jurkat; assay: Cytotoxicity against human Jurkat cells; type: functional, cell-based
[2] = Cytotoxicity against mouse LL/2 cells; type: functional, cell-based, Lewis lung carcinoma
[3] = tested on: P388; assay: Cytotoxicity against mouse P388 cells; type: functional, cell-based
[4] = tested on: MOLT-4; assay: Cytotoxicity against human MOLT4 cells; type: functional, cell-based
[5] = tested on: WEHI-164; assay: Cytotoxicity against mouse WEHI164 cells; type: functional, cell-based

| SMILES | Activity [3] | Activity [4] | also measured |
| --- | --- | --- | --- |
| COc1cc(OC)c2c(c1)O[C@@]1(c3ccc(OC)c(O[C@@H]4O[C@H](C)[C@@H](O)[C@H](OC)[C@@H]4OC(C)=O)c3)[C@H](c3ccccc3)C[C@@H](O)[C@@]21O | – | – | IC50 [1]: 0.0022 µg/mL (≈ 0.00337 µM); IC50 ([2]; lewis lung carcinoma): 0.0042 µg/mL (≈ 0.00643 µM); IC50 ([3]; p388): 0.036 µg/mL (≈ 0.0552 µM) |
| CC[C@@](C)(O)C(=O)N[C@@H]1CCCN1C(=O)[C@@H]1[C@@H](c2ccccc2)[C@@]2(O)c3c(OC)cc(OC)cc3O[C@]1(c1ccc(OC)cc1)[C@H]2OC(C)=O | inactive | inactive | – |
| CC[C@@](C)(O)C(=O)N[C@@H]1CCCN1C(=O)[C@H]1[C@H](c2ccccc2)[C@]2(c3ccc(OC)cc3)Oc3cc(OC)cc(OC)c3[C@@]1(O)[C@H]2OC(C)=O | inactive | inactive | – |
| COc1ccc([C@@]23Oc4cc(OC)cc(OC)c4[C@]2(O)[C@H](O)C[C@H]3c2ccccc2)cc1 [ROCAGLAOL] | – | – | IC50 [5]: 0.023 µg/mL (≈ 0.0529 µM); IC50 ([2]; Mus musculus, Lewis lung carcinoma, read-out: IC50): 0.034 µg/mL (≈ 0.0783 µM); IC50 ([3]; Mus musculus, P388, read-out: IC50): < 0.01 µg/mL |
| CC[C@@](C)(O)C(=O)N[C@@H]1CCCN1C(=O)[C@@H]1[C@@H](c2ccccc2)[C@@]2(O)c3c(OC)cc(OC)cc3O[C@]1(c1ccc(OC)cc1)[C@H]2O | inactive | inactive | – |
| CC[C@@](C)(O)C(=O)N[C@@H]1CCCN1C(=O)[C@@H]1[C@@H](c2ccccc2)[C@]2(c3ccc(OC)cc3)Oc3cc(OC)cc(OC)c3[C@@]1(O)[C@H]2OC(C)=O | inactive | inactive | – |
